In patent publication US11225490B2, “Prodrugs of secondary amine compounds” (Alkermes Pharma Ireland Limited, priority 2011, dated 2022):

Experiment: Pharmacokinetic evaluation of prodrugs in rats (plasma olanzapine and prodrug after intramuscular injection)
Type: in vivo, Male Sprague-Dawley rats
Settings: ([Prodrug AUClast/MWprodrug]/[OLZ AUCINF/MWOLZ])*100, IM, dose 3 mg
Procedure: Male Sprague-Dawley rats (Charles River Laboratories, Wilmington, Mass.) 25 male Sprague-Dawley rats are obtained. Approximately 24 rats are used in each study. Rats are approximately 325-350 g at time of arrival, and are housed 2 per cage with ad libitum chow and water. Environmental conditions in the housing room are 64-76° F., 30% to 70% relative humidity, and 12:12-h light:dark cycle. All experiments are approved by the Institutional Animal Care and Use Committee.
Prodrug compounds (Compound 56, Compound 111, and Compound 112) of the invention and corresponding parent drugs of the prodrugs are tested.
Rats are dosed IM by means of a 25 gauge, ⅝ in. needle with 1 cc syringe. 0.3mL suspension is withdrawn from the vial containing the test compound. The rat is injected in the muscles of the hind limb after anesthesia with isoflourane. Blood samples are collected via a lateral tail vein after brief anesthesia with Isoflurane. A 27½ G needle and lcc syringe without an anticoagulant is used for the blood collection. Approximately 250 μL of whole blood is collected at each sampling time point of 1 hour, 6 hours, 24 hours and 2, 3, 6, 7, 10, 14 days after administration. Once collected, whole blood is immediately transferred to tubes containing an esterase inhibitor and anti-coagulant, inverted 10-15 times and immediately placed on ice. The tubes are centrifuged for 2 minutes at >14,000 g's (11500 RPMs using Eppendorf Centrifuge at 2-6° C. to separate plasma. Plasma samples are transferred to labeled plain tubes and stored frozen at <−70° C. The study design is shown in Table 5 and the PK results are given in Table 6.
The Olanzapine and prodrug concentrations in plasma samples were analyzed by liquid chromatography-tandem mass spectroscopy using appropriate parameters for each compound.
Half life, maximal concentration, and AUC are calculated using WinNonlin software, version 5.2 (Pharsight, St. Louis, Mo.). (FIGS. 1-4).

Relative exposure of prodrug	SMILES
Not detected	CCCCCCCCCCCCCCCC(=O)OCOC(=O)N1C(N2CCN(C)CC2)=c2cc(C)sc2=Nc2ccccc21 [Compound 56, (palmitoyloxy)methyl 2-methyl-4-(4-methylpiperazin-1-yl)-5H-benzo[b]thieno[2,3-e][1,4]diazepine-5-carboxylate]
<3%	CCCCCCCCCCCCCCCCCC(=O)OCOC(=O)N1C(N2CCN(C)CC2)=c2cc(C)sc2=Nc2ccccc21 [Compound 111, (stearoyloxy)methyl 2-methyl-4-(4-methylpiperazin-1-yl)-5H-benzo[b]thieno[2,3-e][1,4]diazepine-5-carboxylate]
12%	CCCCCCCCCCCCCCCCCCCC(=O)OCOC(=O)N1C(N2CCN(C)CC2)=c2cc(C)sc2=Nc2ccccc21 [Compound 112, (icosanoyloxy)methyl 2-methyl-4-(4-methylpiperazin-1-yl)-5H-benzo[b]thieno[2,3-e][1,4]diazepine-5-carboxylate]
